Laboratory results taken from the NIST ThermoML archive (doi:10.1016/j.jct.2015.04.015).
Numbers after ± are expanded uncertainties.

Settings: Gas, Rotating-body viscometer developed for low-density gases

O=C=O [carbon dioxide]
Settings	viscosity [mPa·s]
253.15 K, 100.2 kPa	0.01271 ± 5.2e-05
253.15 K, 153 kPa	0.01271 ± 5.2e-05
253.15 K, 200.5 kPa	0.01271 ± 5.2e-05
253.15 K, 300.5 kPa	0.01271 ± 5.2e-05
253.15 K, 401.4 kPa	0.01272 ± 5.2e-05
273.17 K, 100.4 kPa	0.01371 ± 5.2e-05
273.17 K, 151.8 kPa	0.0137 ± 5.2e-05
273.17 K, 203.4 kPa	0.0137 ± 5.2e-05
273.17 K, 301.7 kPa	0.01371 ± 5.2e-05
273.17 K, 399.4 kPa	0.01371 ± 5.2e-05
273.17 K, 502.8 kPa	0.01372 ± 5.2e-05
298.15 K, 100.8 kPa	0.0149 ± 3e-05
298.15 K, 150.4 kPa	0.01491 ± 3e-05
298.15 K, 201.6 kPa	0.0149 ± 3e-05
298.15 K, 204.6 kPa	0.0149 ± 3e-05
298.15 K, 303.2 kPa	0.01491 ± 3e-05
298.15 K, 303.3 kPa	0.01491 ± 3e-05
298.15 K, 400 kPa	0.01493 ± 3e-05
298.15 K, 402.9 kPa	0.01492 ± 3e-05
298.15 K, 498.5 kPa	0.01493 ± 3e-05
298.15 K, 499.7 kPa	0.01494 ± 3e-05
298.15 K, 502.8 kPa	0.01494 ± 3e-05
298.15 K, 604.5 kPa	0.01494 ± 3e-05
323.16 K, 100.8 kPa	0.01608 ± 5.1e-05
323.16 K, 151.6 kPa	0.01608 ± 5.1e-05
323.16 K, 200.9 kPa	0.01609 ± 5.1e-05
323.16 K, 304.9 kPa	0.0161 ± 5.1e-05
323.16 K, 400.7 kPa	0.0161 ± 5.1e-05
323.16 K, 500.4 kPa	0.01612 ± 5.1e-05
323.16 K, 598.7 kPa	0.01613 ± 5.1e-05
373.16 K, 100.4 kPa	0.0184 ± 5e-05
373.16 K, 151.4 kPa	0.0184 ± 5e-05
373.16 K, 201.1 kPa	0.0184 ± 5e-05
373.16 K, 296.8 kPa	0.01842 ± 5e-05
373.16 K, 399.9 kPa	0.01843 ± 5e-05
373.16 K, 604.9 kPa	0.01846 ± 5e-05
373.16 K, 802.6 kPa	0.01849 ± 5e-05
423.14 K, 100.2 kPa	0.02065 ± 5e-05
423.14 K, 153.3 kPa	0.02066 ± 5e-05
423.14 K, 204.1 kPa	0.02065 ± 5e-05
423.14 K, 302 kPa	0.02066 ± 5e-05
423.14 K, 397.6 kPa	0.02068 ± 5e-05
423.14 K, 600.4 kPa	0.0207 ± 5e-05
423.14 K, 800.8 kPa	0.02073 ± 5e-05
423.14 K, 998.9 kPa	0.02077 ± 5e-05
473.15 K, 153 kPa	0.02275 ± 5e-05
473.15 K, 202.5 kPa	0.02277 ± 5e-05
473.15 K, 403.5 kPa	0.02278 ± 5e-05
473.15 K, 601.1 kPa	0.02282 ± 5e-05
473.15 K, 803 kPa	0.02284 ± 5e-05
473.15 K, 997.8 kPa	0.02288 ± 5e-05
473.15 K, 1200.9 kPa	0.0229 ± 5e-05
473.16 K, 100.1 kPa	0.02275 ± 5e-05
